The source of these data is ChEMBL document CHEMBL1201862, “PubChem BioAssay data set” (2004).

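Interpolation was linear, between the two tested concentrations surrounding the appropriate level; five concentrations were tested over 48 hours in 96-well plates. GI50 = concentration required for 50% inhibition of growth.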 Active and inactive are the calls of the source. Cut-off read from the data, not from the text of the source: active = GI50 up to about 1.1 µM and inactive = higher. Where only a bound is given, the exact number is not on record here.

Among the test systems are T47D; MCF7; SK-OV-3; K562; SF-539; OVCAR-5; M14; U-251; 786-0; DU-145; NCI-H23; OVCAR-3; NCI/ADR-RES; SK-MEL-28; HCT-15; UACC-62; ACHN; OVCAR-8; A549; Malme-3M.
Assay in all cases: growth of human tumour cells (NCI), 48 h

Regarding `O/N=N/c1ccc(Sc2ccc(/N=N/O)cn2)nc1`, the GI50 with T47D, in the assay with MCF7, in the assay on SK-OV-3, with K562, in the assay on SF-539 and with OVCAR-5 was > 100 µM (inactive) throughout. For the same compound, the GI50 in the assay on M14, with U-251, in the assay with 786-0, in the assay on DU-145, in the assay with NCI-H23 and in the assay with OVCAR-3 was > 100 µM (inactive) throughout. Besides, the GI50 in the assay with NCI/ADR-RES is > 100 µM (inactive); with SK-MEL-28 it was > 100 µM (inactive); in the assay on HCT-15, greater than 100 µM; with UACC-62, > 100 µM (inactive); in the assay with ACHN, > 100 µM (inactive); with OVCAR-8, > 100 µM (inactive). The GI50 in the assay on A549 is > 100 µM (inactive).

Turning to `CCNC(=S)NNC(=O)c1csc(NC(=S)NC2CCCCC2)n1`, the GI50 in the assay on T47D is 11.7 µM (inactive); in the assay with MCF7, 4.69 µM (inactive); in the assay with SK-OV-3, 21.3 µM (inactive); in the assay on SF-539, 6.17 µM (inactive); with OVCAR-5, 26.9 µM (inactive); in the assay on M14 it was 11.6 µM (inactive). Further, the GI50 with U-251 was 9.95 µM (inactive); with 786-0, 6.52 µM (inactive); in the assay on DU-145, 12.1 µM (inactive); in the assay on NCI-H23 it was 22.8 µM (inactive); in the assay with OVCAR-3, 3.25 µM (inactive); in the assay on NCI/ADR-RES it was 14.4 µM (inactive). In addition, the GI50 with HCT-15 was 1.67 µM; in the assay with UACC-62, 6.18 µM (inactive); with ACHN, 7 µM (inactive); in the assay on OVCAR-8, 10 µM (inactive); with A549, 16.9 µM (inactive).

For the compound `COc1ccc(Nc2nc(N)c(C(=O)c3ccc(Cl)cc3)s2)cc1`, the GI50 in the assay with T47D was 24 µM (inactive); in the assay with MCF7, 0.356 µM (active); with SK-OV-3 it was < 0.01 µM (active); in the assay on K562 it was < 0.01 µM (active); in the assay with SF-539, < 0.01 µM (active); in the assay with OVCAR-5, 0.505 µM (active). Besides, the GI50 is < 0.01 µM (active) with M14; < 0.01 µM (active) in the assay with U-251; < 0.01 µM (active) in the assay on 786-0; < 0.01 µM (active) in the assay with DU-145; < 0.0152 µM (active) in the assay on NCI-H23; < 0.01 µM (active) in the assay on OVCAR-3. The GI50 with NCI/ADR-RES is < 0.01 µM (active); in the assay with SK-MEL-28, 1.02 µM (active); in the assay on HCT-15, 0.0439 µM; in the assay on UACC-62, < 0.01 µM (active); with ACHN it was < 0.01 µM (active); with OVCAR-8, < 0.0126 µM (active). Further, the GI50 with A549 was < 0.0224 µM (active).

For the compound `COc1cccc2c1C(=O)c1c(O)c3c(c(O)c1C2=O)C[C@@](O)(C(=O)CO)C[C@@H]3OC1CC(N)C(OC)C(C)O1` (stereo not given in full), the GI50 is 0.23 µM (active) in the assay with T47D; < 0.01 µM (active) in the assay with MCF7; 0.0767 µM (active) with SK-OV-3; 0.0284 µM (active) with K562; 0.0421 µM (active) in the assay with SF-539; 0.189 µM (active) in the assay on OVCAR-5. Moreover, the GI50 with M14 is 0.0975 µM (active); in the assay with U-251, 0.0224 µM (active); in the assay with 786-0 it was 0.0327 µM (active); in the assay on DU-145 it was 0.264 µM (active); with NCI-H23 it was 0.0605 µM (active); in the assay on OVCAR-3, 0.338 µM (active). Besides, the GI50 was 0.0532 µM (active) in the assay on Malme-3M; 0.315 µM (active) in the assay on SK-MEL-28; 1.98 µM with HCT-15; 0.0461 µM (active) in the assay with UACC-62; 0.0242 µM (active) in the assay with ACHN; 0.0289 µM (active) with OVCAR-8. Further, in the assay with A549, the GI50 was 0.0269 µM (active).

Consider `O/N=N/c1ccc2ccccc2n1`, for which the GI50 in the assay on T47D, in the assay on MCF7, in the assay on SK-OV-3, with K562, in the assay on SF-539 and in the assay with OVCAR-5 was > 100 µM (inactive) in each case. The GI50 with M14, in the assay with U-251, in the assay on 786-0, in the assay on DU-145, in the assay on NCI-H23 and in the assay with OVCAR-3 was > 100 µM (inactive) throughout. In addition, the GI50 is > 100 µM (inactive) with NCI/ADR-RES; > 100 µM (inactive) in the assay with SK-MEL-28; greater than 100 µM in the assay with HCT-15; > 100 µM (inactive) in the assay with UACC-62; > 100 µM (inactive) in the assay on ACHN; > 100 µM (inactive) in the assay with OVCAR-8. The GI50 in the assay with A549 is > 100 µM (inactive).

With `Cc1cc(=O)oc2cc(OC(=O)N(C)C)c(Cl)cc12`, the GI50 in the assay with T47D is 85.9 µM (inactive); in the assay with MCF7, > 100 µM (inactive); with K562, > 100 µM (inactive); in the assay on SF-539 it was 55.3 µM (inactive); with OVCAR-5, > 100 µM (inactive); in the assay with M14 it was 83.9 µM (inactive). Moreover, the GI50 in the assay on U-251 is 53 µM (inactive); with 786-0, 87.5 µM (inactive); in the assay on DU-145, > 100 µM (inactive); in the assay with NCI-H23, > 100 µM (inactive); with OVCAR-3 it was > 100 µM (inactive); in the assay on Malme-3M, 84.3 µM (inactive). Also, the GI50 in the assay on NCI/ADR-RES was > 100 µM (inactive); in the assay with SK-MEL-28 it was > 100 µM (inactive); in the assay on HCT-15, greater than 100 µM; in the assay with UACC-62, 21.6 µM (inactive); with ACHN, > 100 µM (inactive); in the assay on OVCAR-8, > 100 µM (inactive). In the assay with A549, the GI50 is > 100 µM (inactive).

Turning to `S=c1sc2ccccc2n1CN1CCN(Cc2ccccc2)CC1`, the GI50 with T47D, in the assay on MCF7, in the assay with SK-OV-3, in the assay on K562, with SF-539 and in the assay with OVCAR-5 was > 100 µM (inactive) each time. Besides, the GI50 in the assay with M14, in the assay with U-251, in the assay on 786-0, with DU-145, with NCI-H23 and with OVCAR-3 was > 100 µM (inactive) each time. In addition, the GI50 was > 100 µM (inactive) in the assay with NCI/ADR-RES; greater than 100 µM in the assay with HCT-15; > 100 µM (inactive) in the assay with UACC-62; > 100 µM (inactive) in the assay on ACHN; > 100 µM (inactive) with OVCAR-8; > 100 µM (inactive) with A549.

`Cc1ccc(Sc2ccccc2C23OC(C)(C4C(=O)N(c5ccccc5)C(=O)C42)N(C)C3=O)cc1` (stereo not given): the GI50 in the assay with T47D, with SK-OV-3, in the assay on K562, in the assay with SF-539, in the assay on OVCAR-5 and in the assay with M14 was > 100 µM (inactive) throughout. The GI50 with U-251 was > 100 µM (inactive); in the assay on 786-0, 96.6 µM (inactive); with DU-145, > 100 µM (inactive); with NCI-H23, > 100 µM (inactive); in the assay on OVCAR-3 it was > 100 µM (inactive); in the assay on Malme-3M, 79.6 µM (inactive). In addition, the GI50 was > 100 µM (inactive) in the assay on NCI/ADR-RES; > 100 µM (inactive) with SK-MEL-28; greater than 100 µM in the assay with HCT-15; 88.5 µM (inactive) in the assay with UACC-62; > 100 µM (inactive) in the assay on ACHN; > 100 µM (inactive) in the assay with OVCAR-8. Also, the GI50 in the assay on A549 was > 100 µM (inactive).

For the compound `COC(=O)C1(C(=O)OC)Cc2ccc(OC)cc2C2=C1C(=O)c1ccccc1C2=O`, the GI50 in the assay with T47D was 1.51 µM (inactive); in the assay with MCF7, 2.55 µM (inactive); in the assay on K562, 1.84 µM (inactive); with SF-539, 16.6 µM (inactive); with OVCAR-5, 6.01 µM (inactive); in the assay on M14, 18.4 µM (inactive). The GI50 with U-251 was 5.56 µM (inactive); in the assay with 786-0 it was 4.75 µM (inactive); with DU-145 it was 16.5 µM (inactive); with NCI-H23, 6.62 µM (inactive); in the assay with OVCAR-3, 0.282 µM (active); in the assay on Malme-3M it was 10.8 µM (inactive). The GI50 was 2.69 µM (inactive) in the assay with NCI/ADR-RES; 17.1 µM (inactive) in the assay with SK-MEL-28; 10.7 µM with HCT-15; 1.85 µM (inactive) in the assay on UACC-62; 5.74 µM (inactive) in the assay with ACHN; 2.4 µM (inactive) with OVCAR-8. The GI50 with A549 is 14.9 µM (inactive).

For the compound `COc1cccc2cc(C(N)=O)c(=N)oc12`, the GI50 with T47D was 37.3 µM (inactive); in the assay with SK-OV-3 it was 49.9 µM (inactive); in the assay with K562, > 100 µM (inactive); in the assay with SF-539, 41.5 µM (inactive); in the assay with OVCAR-5, 51.3 µM (inactive); in the assay with M14, 46.6 µM (inactive). For the same compound, the GI50 is 81.5 µM (inactive) in the assay on U-251; 31.7 µM (inactive) with 786-0; 92.5 µM (inactive) with DU-145; 48.4 µM (inactive) in the assay with NCI-H23; 36.9 µM (inactive) in the assay on OVCAR-3; 19.2 µM (inactive) with Malme-3M. Further, the GI50 was 57.1 µM (inactive) with NCI/ADR-RES; 46.5 µM (inactive) in the assay on SK-MEL-28; 52.6 µM in the assay on HCT-15; 31.3 µM (inactive) in the assay on UACC-62; 40.3 µM (inactive) in the assay on ACHN; 50 µM (inactive) in the assay on OVCAR-8. Besides, the GI50 in the assay with A549 was 50.5 µM (inactive).

`COC1=CC(=O)c2c(cc(COP(=O)(OCC3OC(n4cc(F)c(=O)[nH]c4=O)CC3O)N(C)CCCCCl)n2C)C1=O` (stereo not given): the GI50 with T47D was 0.991 µM (active); in the assay on MCF7, < 0.01 µM (active); in the assay with K562, 1.98 µM (inactive); in the assay on SF-539, < 0.0118 µM (active); in the assay on OVCAR-5, 7.45 µM (inactive); with M14, 0.136 µM (active). Further, the GI50 is 0.409 µM (active) in the assay on U-251; 0.186 µM (active) in the assay with 786-0; 0.321 µM (active) in the assay with DU-145; 0.142 µM (active) in the assay with NCI-H23; 1.2 µM (inactive) in the assay on OVCAR-3; 2.42 µM (inactive) with Malme-3M. For the same compound, the GI50 in the assay on NCI/ADR-RES is 0.678 µM (active); in the assay with HCT-15 it was 7.55 µM; in the assay with UACC-62, 0.0736 µM (active); with ACHN it was < 0.01 µM (active); with OVCAR-8 it was 0.0593 µM (active); in the assay with A549, < 0.01 µM (active).
